We go through 3 compounds from patent publication US11485987B2, “Methods for inducing bioorthogonal reactivity” (University of Delaware, priority 2015, dated 2022).

Data set [1] addresses T1, F41A APEX2 (Glycine max, UniProt Q43758, A134P/E112K/K14D/W41A).
T1 sequence (Q43758 1-250 A134P/E112K/K14D/W41A): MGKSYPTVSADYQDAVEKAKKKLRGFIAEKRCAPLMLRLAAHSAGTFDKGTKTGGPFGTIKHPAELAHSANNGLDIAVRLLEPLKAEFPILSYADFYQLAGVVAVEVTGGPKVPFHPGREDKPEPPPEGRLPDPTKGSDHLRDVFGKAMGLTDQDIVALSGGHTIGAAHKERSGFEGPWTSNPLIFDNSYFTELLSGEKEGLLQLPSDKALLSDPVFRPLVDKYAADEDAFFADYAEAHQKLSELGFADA
Nature of the data set: Oxidation of DHT by F41A APEX2, UV-Vis initial rates and kinetic parameters. It counts as biochemical. The settings on record: for Initial rate of oxidation of DHT by F41A APEX2 + SOD: SOD 1 μM, PBS, 100 μM EDTA, first 100 s. The procedure:
(§1) UV-Vis and fluorescence measurements were conducted in quartz cuvettes. All reactions were conducted in phosphate buffered saline (PBS) containing 100 μM EDTA with a pH=7.4. The PBS was prepared by adding 25 mM phosphate salts (Na2HPO4 and NaH2PO4), 100 mM NaCl, 100 μM EDTA to DI water. EDTA was added to quench free metals that can oxidize DHT. The buffer was pH adjusted to 7.4 using 1 mM HCl and 1 mM NaOH. UV experiments were stirred at 25° C. in a temperature-controlled cuvette holder of the spectrophotometer. Solutions of 15 or 16 were prepared from methanol stock solutions.
(§2) SOD (1 μM) was added to PBS containing 100 μM EDTA. 15 or 16 (60 μM) was added from methanol stock solutions. After 10s, APEX2 (SEQ ID NO:1) or F41A APEX2 (275 nM) was dosed in and oxidation was monitored at 325 nm for 15 and 285 nm for 16 at 60s intervals.
(§3) The initial rate of oxidation was calculated from the first 100 seconds after APEX2 (SEQ ID NO:1) or F41A APEX2 was added ([…]). In the assays where SOD was added, SOD (1 μM) was added to PBS containing 100 μM EDTA and 15 or 16 was dosed in. 10 seconds later, APEX2 (SEQ ID NO:1) or F41A APEX2 ([…]) was added and the rate of oxidation was calculated from the first 100 seconds after APEX2 (SEQ ID NO:1) or F41A APEX2 ([…]) addition. The initial rate of oxidation was adjusted to background oxidation of DHT in PBS with 100 μM EDTA. Kinetic parameters (Table 2) were determined using GraphPad's Prism 6 software from the data presented below (Table 3-4).

The target of data set [2] is T2, APEX2 (SEQ ID NO:1) (Glycine max, UniProt Q43758, A134P/E112K/K14D/W41F).
T2 sequence (Q43758 1-250 A134P/E112K/K14D/W41F): T1 sequence (Q43758 1-250 A134P/E112K/K14D/W41A) with A41F
The experiment in a line: Oxidation of DHT by APEX2, UV-Vis initial rates and kinetic parameters. It counts as biochemical. As to conditions: PBS, 100 μM EDTA, first 100 s; for Initial rate of oxidation of DHT by APEX2 (SEQ ID NO: 1) + SOD: SOD 1 μM. The protocol:
as §1
15 or 16 (60 μM) from methanol stock solutions was added to PBS containing 100 μM EDTA. After 10s, APEX2 (SEQ ID NO:1) (275 nM) was dosed in and oxidation was monitored at 325 nm for 15 and 285 nm for 16 at 60s intervals (FIG. 10B-C).
16 (15 μM) DHT from methanol stock solutions was added to PBS containing 100 μM EDTA. After 10s, APEX2 (SEQ ID NO:1) (275 nM) or HRP (15 nM) was dosed in and oxidation was monitored at 285 nm at 10s intervals (FIG. 10D)
as §2, §3

Data set [3] can be described thus: NIR photocatalytic oxidation/Diels-Alder/payload release (methylene blue, 660 nm LED). The settings on record: 28 μM in MeOH, methylene blue 7 μM, LED 660 nm 9.1 mW/cm^2. The procedure:
Encouraged by calculation, the inventors synthesized the compound 7, where p-nitrophenol serves as a model payload that can be readily monitored by UV and NMR (FIG. 7, panel A). To study the Diels-Alder/elimination sequence […], the inventors chose to oxidize 7 with Dess-Martin periodinane—a reagent that instantaneously oxidizes dihydrotetrazines to tetrazines. […] Upon LED irradiation (660 nm, 9.1 mW/cm^2) of 7 (28 μM) in MeOH in the presence of catalytic methylene blue (7 μM), complete oxidation/Diels-Alder/payload release within 15 minutes was observed (FIG. 7, panel B). In this photocatalytic reaction, aliquots by ESI-MS were analyzed, and intermediates 8 and 9 were not detected.
[…]. […] The reaction of 12 to produce 13 and 14 could also be promoted by irradiating a solution of 12 in 60% H2O/MeOH for 30 min with a 660 nm LED light source in the presence of catalytic amounts of methylene blue with monitoring by UV-Vis. The complete conversion to product 13 could be observed by UV-vis within 30 minutes.

The nature of data set [4]: Tetrazine hydrolytic stability in PBS. It counts as physicochemical. As to conditions: 800 μM, PBS buffer, 25° C. An excerpt:
A challenge to the development of catalytic methods for turning on the tetrazine ligation was the identification of a DHTz/Tz pair that would be stable in both oxidation states (FIG. 1, panel B). For most redox couples, either the DHTz is too readily oxidized in air (e.g., 1), or the Tz is too reactive toward water and other nucleophiles (e.g., 2). The inventors show here that the dipyridyl DHTz/Tz pair (3/4) has good stability in both states (FIG. 1, panel C). Dihydrotetrazines 3 are highly resistant toward background oxidation in organic solvents, and a number of derivatives have been synthesized and shown stable even to silica gel chromatography. […] Aqueous solutions of 3a were handled in glassware that had been first rinsed with 2.0 mM EDTA in PBS to remove adventitious metal impurities. After standing in the dark at 25° C. in PBS buffer, a solution of 3a was monitored by UV-vis and shown to retain 99 and 96% of the DHTz oxidation state over 30 min and 2.5 hours respectively. […] In PBS containing 10% mouse serum, 90% of 3a was retained in the DHTz oxidation state after 1 h. […]
Solutions (1 mL) containing 4a (800 μM) in PBS buffer were prepared in cuvettes from stock solutions. Tetrazine concentration was measured by recording the absorbance at 525 nm every 20 minutes while holding the cuvette at either 25 for 24 hours.

Positions count from the first letter of the chain named.

For the compound `CCCCNC(=O)C1=NNC(c2ccccn2)=NN1` [compound 16], the “Initial rate of oxidation of DHT by F41A APEX2 + SOD” value in data set [1] (DHT 5 μM) is reported as 0.334 +/− 0.010 ×10^−8 M/s; in data set [1] (DHT 10 μM), 0.642 +/− 0.035 ×10^−8 M/s; in data set [1] (DHT 15 μM), 1.124 +/− 0.034 ×10^−8 M/s; in data set [1] (DHT 20 μM) it was 2.132 +/− 0.035 ×10^−8 M/s; in data set [1] (DHT 25 μM), 2.568 +/− 0.131 ×10^−8 M/s; in data set [1] (DHT 30 μM), 2.129 +/− 0.076 ×10^−8 M/s. The “Initial rate of oxidation of DHT by F41A APEX2 + SOD” value in data set [1] (DHT 35 μM) is reported as 3.078 +/− 0.025 ×10^−8 M/s; in data set [1] (DHT 40 μM) it was 2.964 +/− 0.011 ×10^−8 M/s; in data set [1] (DHT 50 μM), 3.867 +/− 0.049 ×10^−8 M/s; in data set [1] (DHT 55 μM), 3.709 +/− 0.336 ×10^−8 M/s; in data set [1] (DHT 75 μM) it was 4.549 +/− 0.150 ×10^−8 M/s; in data set [1] (DHT 85 μM), 5.098 +/− 0.571 ×10^−8 M/s. Besides, the “factor of increase of rate of catalysis versus APEX2 (SEQ ID NO:1)” value in data set [1] (F41A APEX2 mutant with SOD) was 5. Besides, the “Initial rate of oxidation of DHT by APEX2 (SEQ ID NO: 1) + SOD” value is on record as 0.429 +/− 0.022 ×10^−8 M/s in data set [2] (DHT 4 μM); 1.011 +/− 0.170 ×10^−8 M/s in data set [2] (DHT 10 μM); 1.662 +/− 0.004 ×10^−8 M/s in data set [2] (DHT 15 μM); 2.073 +/− 0.046 ×10^−8 M/s in data set [2] (DHT 30 μM); 2.379 +/− 0.350 ×10^−8 M/s in data set [2] (DHT 40 μM); 2.234 +/− 0.088 ×10^−8 M/s in data set [2] (DHT 45 μM). Also, the “Initial rate of oxidation of DHT by APEX2 (SEQ ID NO: 1) + SOD” value was 2.149 +/− 0.009 ×10^−8 M/s in data set [2] (DHT 50 μM); 2.503 +/− 0.210 ×10^−8 M/s in data set [2] (DHT 55 μM); 2.376 +/− 0.450 ×10^−8 M/s in data set [2] (DHT 60 μM); 2.746 +/− 0.180 ×10^−8 M/s in data set [2] (DHT 70 μM); 2.491 +/− 0.032 ×10^−8 M/s in data set [2] (DHT 90 μM). Besides, the “Initial rate of oxidation of DHT by APEX2 (SEQ ID NO: 1)” value is 0.319 +/− 0.056 ×10^−8 M/s in data set [2] (DHT 5 μM); 0.673 +/− 0.002 ×10^−8 M/s in data set [2] (DHT 10 μM); 0.810 +/− 0.081 ×10^−8 M/s in data set [2] (DHT 15 μM); 1.169 +/− 0.095 ×10^−8 M/s in data set [2] (DHT 20 μM); 1.131 +/− 0.182 ×10^−8 M/s in data set [2] (DHT 30 μM); 1.427 +/− 0.265 ×10^−8 M/s in data set [2] (DHT 40 μM). In addition, the “Initial rate of oxidation of DHT by APEX2 (SEQ ID NO: 1)” value in data set [2] (DHT 45 μM) is reported as 1.376 +/− 0.071 ×10^−8 M/s; in data set [2] (DHT 50 μM), 1.438 +/− 0.017 ×10^−8 M/s; in data set [2] (DHT 60 μM), 1.396 +/− 0.123 ×10^−8 M/s; in data set [2] (DHT 75 μM) it was 1.766 +/− 0.080 ×10^−8 M/s; in data set [2] (DHT 85 μM) it was 1.695 +/− 0.114 ×10^−8 M/s.

Turning to `CCCCN(C(=O)/C=C/Oc1ccc([N+](=O)[O-])cc1)c1cccnc1C1=NNC(c2ccccn2)=NN1` [compound 7, (E)-N-butyl-3-(4-nitrophenoxy)-N-(2-(6-(pyridin-2-yl)-1,4-dihydro-1,2,4,5-tetrazin-3-yl)pyridin-3-yl)acrylamide], the “time to complete oxidation/Diels-Alder/payload release” value in data set [3] was at most 15 min.

For `O=C(O)CCC(=O)Nc1ccc(-c2nnc(-c3ccccn3)nn2)nc1` [4a, 4-oxo-4-((6-(6-(pyridin-2-yl)-1,2,4,5-tetrazin-3-yl)pyridin-3-yl)amino)butanoic Acid], the values for the tetrazine fidelity in data set [4] (2 h) and in data set [4] (24 h) were 98% and 83%, respectively.
